Laboratory results from patent US20230339878A1, “SLC26A3 INHIBITORS AND USE THEREOF” (THE REGENTS OF THE UNIVERSITY OF CALIFORNIA, priority 2018, published 2023).
Entries after “also recorded” stand apart in the source; their conditions may differ. Like-named read-outs stand apart in the source and are kept apart here.

What was measured:
murine slc26a3 = target: T1, murine slc26a3 (Mus musculus, UniProt Q9WVC8); experiment: slc26a3-mediated Cl-/I- exchange, YFP fluorescence quenching in FRT-YFP-slc26a3 cells; format: cell-based
T1 construct: host or cells: Fischer rat thyroid (FRT) cells expressing YFP, clonal line FRT-YFP-slc26a3
T1 sequence (Q9WVC8 1-757): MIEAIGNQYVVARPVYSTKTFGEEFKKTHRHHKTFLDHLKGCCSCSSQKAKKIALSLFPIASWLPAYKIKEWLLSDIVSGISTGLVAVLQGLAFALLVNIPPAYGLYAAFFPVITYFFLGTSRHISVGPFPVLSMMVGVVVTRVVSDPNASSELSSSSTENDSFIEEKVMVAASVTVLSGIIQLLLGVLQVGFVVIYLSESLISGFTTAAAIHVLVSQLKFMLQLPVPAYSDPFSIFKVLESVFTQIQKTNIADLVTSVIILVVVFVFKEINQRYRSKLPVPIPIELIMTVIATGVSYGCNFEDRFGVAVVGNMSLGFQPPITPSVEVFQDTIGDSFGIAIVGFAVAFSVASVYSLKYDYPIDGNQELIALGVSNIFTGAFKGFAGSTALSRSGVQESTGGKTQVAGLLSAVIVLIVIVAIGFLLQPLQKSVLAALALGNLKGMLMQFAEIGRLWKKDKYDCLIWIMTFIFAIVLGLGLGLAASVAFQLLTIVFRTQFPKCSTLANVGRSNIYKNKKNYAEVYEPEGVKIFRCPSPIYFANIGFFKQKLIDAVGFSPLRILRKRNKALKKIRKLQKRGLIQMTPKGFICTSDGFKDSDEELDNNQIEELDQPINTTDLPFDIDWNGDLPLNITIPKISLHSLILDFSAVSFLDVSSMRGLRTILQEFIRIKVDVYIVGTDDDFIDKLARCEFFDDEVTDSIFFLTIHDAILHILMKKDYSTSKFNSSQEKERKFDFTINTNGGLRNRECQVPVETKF
Procedure: High-throughput screening to identify slc26a3 inhibitors using FRT-YFP- slc26a3 cells was done with a semi-automated Beckman Coulter (Indianapolis, IN) platform with FLUOstar OMEGA plate readers (BMG Labtech, Cary, NC), essentially as described for discovery of pendrin inhibitors. Initial screening was done of ~50,000 drug-like synthetic small molecules (ChemDiv, San Diego, CA) at a concentration of 25 µM using a Cl^-/I^- exchange protocol to assay slc26a3 function. Following initial screening, compound analogs were purchased (ChemDiv, San Diego, CA) to generate structure-activity data.
For the screening, FRT-YFP-slc26a3 cells were plated in 96-well black-walled, clear-bottom tissue culture plates (Corning Life Sciences, Tewksbury, MA) at a density of 20,000 cells/well and cultured for 48 hours until confluent. For screening, cells were washed twice in PBS and incubated for 10 min in 100 µl PBS containing test compounds prior to assay of slc26a3 function. Assays were done using a FLUOstar OMEGA plate reader (BMG Labtech, Cary, NC) over 12 s with initial fluorescence recorded over 1 s prior to addition of 100 µl NaI-substituted PBS (137 mM NaCl replaced by 137 mM NaI) to drive Cl^-/I^- exchange. The initial rate of Cl^-/I^- exchange was determined from fluorescence intensity by single exponential regression. All plates contained wells with negative (1 % DMSO) and positive (350 µM niflumic acid) controls.
Screening was done using an FRT cell line stably expressing murine slc26a3 and a halide-sensitive yellow fluorescent protein (FRT-YFP- slc26a3 cells). FRT cells were used because of their low intrinsic permeability to anions that are transported by slc26a3, and because of their good adherence and rapid growth on uncoated plastic. As diagrammed in FIG. 1A, slc26a3-mediated transport was assayed from the kinetics of YFP fluorescence quenching in response to extracellular addition of I^- to drive Cl^-/I^- exchange; transport inhibition reduces the rate of fluorescence decrease.

[1] = Pharmacokinetics in mice, serum LC/MS; format: in vivo; conditions: for oral bioavailability / bioavailability: 5 mg/kg (A1, A260) or 10 mg/kg (A270), mice; for bioavailability: mouse, serum, po, n=3, read-out: oral bioavailability (mean±SEM)
Procedure: Pharmacokinetics of the Compound A1(DRAinh-A250) and analogs (DRAinh-A260 and DRAinh-A270) was determined in mice. After single dose intraperitoneal or oral administration (5 mg/kg for Compound A1 and DRAinh-A260, 10 mg/kg for DRAinh-A270), blood samples were collected via retro-orbital puncture at different time points and serum was separated by centrifugation. Compound concentrations were measured in serum using LC/MS. FIGS. 10A, 10B, 10C show the respective serum concentration of Compound A1 (FIG. 10A), DRAinh-A260 (FIG. 10B) and DRAinh-A270 (FIG. 10C) after single oral or intraperitoneal administration at zero time (n=3 mice per compound per administration route). Compound A1 had predicted therapeutic levels for at least 24 hours after single dose oral or intraperitoneal administration. […] (mean±SEM): 53.9±6.5% for Compound A1, 16.4±6.6% for DRAinh-A260, and 39.3±3.5% for DRAinh-A270.

[2] = test system: acute hyperoxaluria in mice; experiment: Acute hyperoxaluria induced by oral sodium oxalate; format: in vivo
Procedure: The efficacy of Compound A1 (DRAinh-A250) and DRAinh-A270 were tested in models of acute hyperoxaluria and oxalate nephropathy in mice. To induce acute hyperoxaluria, mice were given sodium oxalate ([…]) with or without 5 mg/kg Compound A1 by oral gavage at zero time and urine was collected for the next 4 hours in metabolic cages. A group of mice were used as controls and treated with vehicle only (no sodium oxalate or DRA inhibitor) and their urine was collected for 4 hours in metabolic cages as well. Using the 4 hour urine samples, urine oxalate/creatinine ratio was determined to quantify urinary oxalate excretion.
Similar experiments were performed for DRAinh-A270 in the acute hyperoxaluria model. For these experiments mice were first placed in metabolic cages to collect urine for 4 hours without any treatment. After this initial collection, the mice were treated with DRAinh-A270 (10 mg/kg) or vehicle intraperitoneally, and given sodium oxalate ([…], in water) by oral gavage at zero time. Urine was collected for the next 4 hours in metabolic cages.

Which results are given for `Cc1c(CC(=O)O)c(=O)oc2c(C)c(OCc3cccc(Br)c3)ccc12` [Compound A1]?
reversibility of inhibition (murine slc26a3; 1 µM for 10 min, then washed three times): full reversibility; also recorded: fully and reversibly inhibited; IC50 (murine slc26a3; selected class A analogs, Table 1, Cl-/I- exchange, read-out: IC50): 150 nM; IC50 (murine slc26a3; summary statement, read-out: IC50 for inhibition of SLC26A3-mediated anion exchange): 100 to 200 nM; oral bioavailability [1]: 54%; time with predicted therapeutic serum levels ([1]; 5 mg/kg single dose oral or intraperitoneal): at least 24 hours; bioavailability [1]: 53.9 ± 6.5%; 4 hour urine oxalate/creatinine ratio (hyperoxaluria) ([2]; 5 mg/kg oral gavage with sodium oxalate 1 µmol/kg): largely prevented hyperoxaluria

With `Cc1c(CC(=O)O)c(=O)oc2c(C)c(OCc3cccc(I)c3)ccc12` [DRAinh-A270] as the compound, how does the “potency compared to Compound A1 (DRAinh-A250)” value (murine slc26a3; FIG. 9) read?
Its value is “four-fold improved potency”.

And the IC50 (murine slc26a3; FIG. 9 concentration-inhibition curves, read-out: IC50 for slc26a3-mediated Cl-/I- exchange)?
The IC50 was ~50 nM.

What about the IC50 (murine slc26a3; representative Class A compounds, Table 3, read-out: IC50) of the same compound?
The IC50 was 40 nM.

What about the oral bioavailability [1] of the same compound?
The oral bioavailability was 39%.

What about the “time with predicted therapeutic serum concentrations” value ([1]; 10 mg/kg single dose oral or intraperitoneal) of the same compound?
The value was “for several days”.

What about the bioavailability [1] of the same compound?
Its bioavailability is 39.3 ± 3.5%.

And the “4-hour urine oxalate/creatinine ratio (hyperoxaluria)” value ([2]; 10 mg/kg intraperitoneally, sodium oxalate 2.5 µmol/kg oral)?
Its value is “largely prevented hyperoxaluria”.
